Source: patent US20220175713A1, “DEPSIDE TRIMERIC COMPOUNDS FOR SKELETAL MUSCLE MODULATION” (SOCIETE DES PRODUITS NESTLE S.A., priority 2019, published 2022)

System: mouse hindlimb muscles injured with cardiotoxin
Assay: In vivo muscle regeneration after intramuscular cardiotoxin injury
Conditions: mice, oral gavage 100 mg/kg body weight once a day from one week before injury, muscles harvested 5 days after injury, vs. water control, FIG. 6
Protocol: (§1) Early phase of expansion and subsequent phase of myogenic differentiation of Muscle Stem Cells were evaluated by counting the number of Pax7+ cells (A) and myogenin+ cells (B), respectively. Data are expressed as number of cells per area of injured muscle. The size of each newly formed myofiber (C) has been measured based on the expression of the eMHC and laminin that allow to recognize and delineate these nascent myofibers. Results are shown as mean myofiber cross-sectional area (μm^2).
In order to reproduce the physiological process of muscle regeneration that occurs in adult skeletal muscles in response to injury or disease, we performed an intramuscular injection of cardiotoxin into mouse hindlimb muscles. One week prior to the induction of the muscle injury, mice were given by oral gavage gyrophoric acid (at 100 mg/kg body weight) vs. water control. […] Several myogenic markers were then measured. […]
as §1, with “(FIG. 6A)” for “(A)”, “(FIG. 6B),” for “(B),”, “(FIG. 6C)” for “(C)”, “Results are shown as mean myofiber cross-sectional area (μm^2).” left out

Compound: Cc1cc(OC(=O)c2c(C)cc(OC(=O)c3c(C)cc(O)cc3O)cc2O)cc(O)c1C(=O)O [gyrophoric acid, 4-[4-(2,4-dihydroxy-6-methylbenzoyl)oxy-2-hydroxy-6-methylbenzoyl]oxy-2-hydroxy-6-methylbenzoic acid]
- in vivo muscle regeneration process (Pax7+ cells, myogenin+ cells, size of newly formed myofibers): Able to Promote the In Vivo Muscle Regeneration Process
